Measured values: patent US9676756B2 (PORTOLA PHARMACEUTICALS, INC., priority 2012, dated 2017)

Key:
Assay type in all cases: biochemical
[1] = molecular target: T1, full length active recombinant SYK enzyme (Homo sapiens, UniProt P43405); assay: SYK tyrosine phosphorylation activity, LANCE TR-FRET kinase assay; details: 1 nM SYK, 100 μM ATP, 1 hour at room temperature
T1 construct: full length active recombinant SYK enzyme (Millipore, CA); purchased Millipore
Experimental: Potency of candidate molecules for inhibiting Syk tyrosine phosphorylation activity is assessed by measuring the ability of a test compound to inhibit Syk-mediated tyrosine phosphorylation of a Syk-specific substrate.
SYK tyrosine phosphorylation activity is measured using the LANCE™ Technology developed by Perkin Elmer Life and Analytical Sciences (Boston, Mass.). LANCE™ refers to homogeneous time resolved fluorometry applications using techniques such as time-resolved fluorescence resonance energy transfer assay (TR-FRET) (see generally for procedures in Perkin Elmer Application Note—How to Optimize a Tyrosine Kinase Assay Using Time Resolved Fluorescence-Based LANCE Detection, wwww.perkinelmer.com/lifesciences). The assay principle involves detection of a phosphorylated substrate using energy transfer from a phosphospecific europium-labeled antibody to streptavidin-allophycocyanin as an acceptor.
To test the ability of candidate molecules to inhibit SYK tyrosine phosphorylation activity, molecules are reconstituted in 30% DMSO and serially diluted 1:3 with the final dilution containing DMSO in the absence of the candidate molecule. The final DMSO concentration in the assay is 3%. Kinase assays are performed as a two part reaction. The first reaction is a kinase reaction that comprises a candidate molecule, full length active recombinant SYK enzyme (Millipore, CA) and biotin-labeled SYK-specific substrate biotin-[…]-OH. The second reaction involves termination of the kinase reaction and the simultaneous addition of the detection reagents-europium-labeled anti-phosphotyrosine reagent (Eu-W1024-PY100, Perkin Elmer, Boston, Mass.) and Streptavidin-Allophycocyanin detection reagent (SA-APC, Prozyme, CA). The kinase reaction is performed in a black U-bottom 96-well microtitre plate. The final reaction volume is 50 μL and contains a final concentration of 1 nM active SYK enzyme, 550 nM SYK-substrate, and 100 μM ATP diluted in a buffer containing 50 mM Tris pH 7.5, 5 mM MgCl2, and 1 mM DTT. The reaction is allowed to proceed for 1 hour at room temperature. The stop buffer contains 100 mM Tris pH 7.5, 300 mM NaCl2, 20 mM EDTA, 0.02% Brij35, and 0.5% BSA. The detection reagents are added to the reaction mixture at the following dilutions—1:500 for Eu-W1024-PY100 and 1:250 for SA-APC. The kinase reaction is terminated by the addition of 50 μL stop buffer containing the detection reagents. The detection is allowed to proceed for 1 hr at room temperature. Detection of the phosphorolated substrate in the absence and presence of inhibitors is measured in the TR-FRET instrument, Analyst HT (Molecular Probes, Sunnyvale, Calif.) and the condition for measurements are set up using CriterionHost Release 2.0 (Molecular Probes, Sunnyvale, Calif.). The settings used are a follows: excitation 360 nm, emission 665-7.5 nm, beam splitter 350 nm 50/50, flash 100 pulses, delay 60 us, integration 400 us, z-height 2 mm. Inhibition of SYK-tyrosine kinase activity is calculated as the maximum response observed in the presence of inhibitor, compared to that in the absence of inhibitor. IC50s are derived by non-linear regression analysis.

[2] = molecular target: T2, JAK3 (Homo sapiens, UniProt P52333); assay: JAK tyrosine phosphorylation activity, Z'-LYTE FRET kinase assay; details: catalytic domain recombinant kinase, Tyr6 peptide
T2 construct: 5 μl of catalytic domain recombinant Kinase enzyme+Tyr peptide substrate (Invitrogen, CA); purchased Invitrogen
Experimental: (§1) JAK and SYK tyrosine phosphorylation activity is measured using the Z'-LYTE™ Technology developed by Invitrogen Corporation (Carlsbad, Calif.). For JAK1, JAK2 and JAK3 the Z'-LYTE™ Kinase Assay Kit-Tyr6 Peptide (part number PV4122) was used. The Z'-LYTE™ biochemical assay employs a fluorescence resonance energy transfer (FRET) coupled-enzyme format and is based on the differential sensitivity of phosphorylated and non-phosphorylated peptides to proteolitic cleavage. The assay uses a synthetic peptide substrate that is labelled with a donor fluorophore (coumarin) and an acceptor fluorophore (fluorescein) that make up a FRET pair. In the primary reaction (the Kinase Reaction), the kinase transfers the γ-phosphate of ATP to a single tyrosine residue on the substrate, while the presence of a kinase inhibitor in the primary reaction suppresses phosphorylation. In the secondary reaction (the Development Reaction), a site-specific protease (the Development Reagent) is added. The development buffer quenches the Kinase Reaction, while the protease recognizes and cleaves non-phosphorylated Z'-LYTE™ peptide substrate. Cleavage disrupts FRET between the donor and acceptor fluorophores on the non-phosphorylated substrate, while uncleaved, phosphorylated substrate maintains FRET.
(§2) To test the ability of candidate molecules to inhibit JAK tyrosine phosphorylation activity, molecules are reconstituted in 100% DMSO and serially diluted 1:10 in polypropylene v-bottom microtiter plates. The candidate molecules are then diluted 1:25 into kinase buffer and 2.5 μl transferred into duplicate wells of a 384 well low volume black microtiter assay plate (Corning, USA). The final DMSO concentration in the assay is 1%. The kinase reaction contains 2.5 μl of a candidate molecule, 5 μl of catalytic domain recombinant Kinase enzyme+Tyr peptide substrate (Invitrogen, CA) and 2.5 μl ATP (Invitrogen, CA). The kinase reaction is allowed to precede for 1 hour at room temperature. The protease reaction is initiated by the addition of 5 μl Development Reagent (Invitrogen, CA). After 1 hour incubation at room temperature the fluorescence is measured using a FlexStation plate reader (Molecular Devices, Sunnyvale, Calif.). The reader settings used are as follows: Fluorescence mode, endpoint, top read, excitation 400 nm, emission 445 nm and 520 nm. Auto Cutoff 435 nm and 515 nm, PMT sensitivity high, 6 reads per well. Inhibition of JAK activity is calculated as the percent phosphorylation of substrate in the presence of inhibitor compared to the percent phosphorylation of substrate in the absence of inhibitor. IC50's were derived using Xlfit 4.3 (IDBS, UK), 4 parameter logistic model 205: Y=(A+((B−A)/(1+((C/x)^D)))).

[3] = molecular target: T3, JAK2 (Homo sapiens, UniProt O60674); assay: as above; details: catalytic domain recombinant kinase, Tyr6 peptide
T3 construct: 5 μl of catalytic domain recombinant Kinase enzyme+Tyr peptide substrate (Invitrogen, CA); purchased Invitrogen
Experimental: as §1, §2

[4] = molecular target: T4, JAK1 (Homo sapiens, UniProt P23458); assay: as above; details: catalytic domain recombinant kinase, Tyr6 peptide
T4 construct: 5 μl of catalytic domain recombinant Kinase enzyme+Tyr peptide substrate (Invitrogen, CA); purchased Invitrogen
Experimental: as §1, §2

T2 sequence (P52333 822-1111 limits assumed): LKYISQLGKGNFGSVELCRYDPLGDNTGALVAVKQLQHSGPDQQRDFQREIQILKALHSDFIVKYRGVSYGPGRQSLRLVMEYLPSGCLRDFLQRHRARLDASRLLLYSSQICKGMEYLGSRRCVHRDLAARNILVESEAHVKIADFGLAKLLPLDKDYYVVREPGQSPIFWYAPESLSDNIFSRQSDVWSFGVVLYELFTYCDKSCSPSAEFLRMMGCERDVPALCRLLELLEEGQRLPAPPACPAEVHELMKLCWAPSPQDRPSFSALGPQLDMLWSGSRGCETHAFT
T4 sequence (P23458 875-1153 limits assumed): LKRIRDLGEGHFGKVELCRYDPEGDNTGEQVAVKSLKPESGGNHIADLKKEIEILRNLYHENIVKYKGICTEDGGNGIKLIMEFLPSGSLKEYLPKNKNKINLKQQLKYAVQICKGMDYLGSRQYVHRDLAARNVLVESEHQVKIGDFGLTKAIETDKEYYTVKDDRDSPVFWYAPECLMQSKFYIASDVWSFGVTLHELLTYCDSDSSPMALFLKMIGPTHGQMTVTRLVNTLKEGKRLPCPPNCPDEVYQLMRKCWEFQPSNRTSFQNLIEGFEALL
T3 sequence (O60674 849-1124 limits assumed): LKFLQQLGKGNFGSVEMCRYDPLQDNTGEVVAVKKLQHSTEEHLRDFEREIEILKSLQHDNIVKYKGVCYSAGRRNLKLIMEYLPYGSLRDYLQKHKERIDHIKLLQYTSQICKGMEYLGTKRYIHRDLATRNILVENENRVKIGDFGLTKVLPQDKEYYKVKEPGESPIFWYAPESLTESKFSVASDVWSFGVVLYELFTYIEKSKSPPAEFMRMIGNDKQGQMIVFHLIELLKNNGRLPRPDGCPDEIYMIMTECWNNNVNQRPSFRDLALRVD

| IC50 [1] | JAK3 IC50 potency class [2] | JAK2 IC50 potency class [3] | JAK1 IC50 potency class [4] | SMILES |
| --- | --- | --- | --- | --- |
| +++ (0.10 uM<IC50<0.01 uM) | ++++ (0.01 uM<IC50<0.001 uM) | ++++ (0.01 uM<IC50<0.001 uM) | +++ (0.10 uM<IC50<0.01 uM) | CCS(=O)(=O)N1CCC(c2ccc(Nc3ncc(C(N)=O)c(NC4CC4)n3)cc2)CC1 [Compound 1, 4-(cyclopropylamino)-2-((4-(1-(ethylsulfonyl)piperidin-4-yl)phenyl)amino)pyrimidine-5-carboxamide] |
| +++ (0.10 uM<IC50<0.01 uM) | ++++ (0.01 uM<IC50<0.001 uM) | ++++ (0.01 uM<IC50<0.001 uM) | +++ (0.10 uM<IC50<0.01 uM) | NC(=O)c1cnc(Nc2ccc(C3CCN(S(=O)(=O)C4CC4)CC3)cc2)nc1NC1CC1 [Compound 2, 4-(cyclopropylamino)-2-((4-(1-(cyclopropylsulfonyl)piperidin-4-yl)phenyl)amino)pyrimidine-5-carboxamide] |
| +++ (0.10 uM<IC50<0.01 uM) | ++++ (0.01 uM<IC50<0.001 uM) | ++++ (0.01 uM<IC50<0.001 uM) | +++ (0.10 uM<IC50<0.01 uM) | CC(C)S(=O)(=O)N1CCC(c2ccc(Nc3ncc(C(N)=O)c(NC4CC4)n3)cc2)CC1 [Compound 3, 4-(cyclopropylamino)-2-((4-(1-(isopropylsulfonyl)piperidin-4-yl)phenyl)amino)pyrimidine-5-carboxamide] |
| +++ (0.10 uM<IC50<0.01 uM) | ++++ (0.01 uM<IC50<0.001 uM) | +++ (0.10 uM<IC50<0.01 uM) | +++ (0.10 uM<IC50<0.01 uM) | CC(C)N1CCC(c2ccc(Nc3ncc(C(N)=O)c(NC4CC4)n3)cc2)CC1 [Compound 4, 4-(cyclopropylamino)-2-((4-(1-isopropylpiperidin-4-yl)phenyl)amino)pyrimidine-5-carboxamide] |
| +++ (0.10 uM<IC50<0.01 uM) | ++++ (0.01 uM<IC50<0.001 uM) | ++++ (0.01 uM<IC50<0.001 uM) | +++ (0.10 uM<IC50<0.01 uM) | CN(C)C(=O)N1CCC(c2ccc(Nc3ncc(C(N)=O)c(NC4CC4)n3)cc2)CC1 [Compound 5, 4-(cyclopropylamino)-2-((4-(1-(dimethylcarbamoyl)piperidin-4-yl)phenyl)amino)pyrimidine-5-carboxamide] |
| +++ (0.10 uM<IC50<0.01 uM) | ++++ (0.01 uM<IC50<0.001 uM) | ++++ (0.01 uM<IC50<0.001 uM) | +++ (0.10 uM<IC50<0.01 uM) | NC(=O)c1cnc(Nc2ccc(C3CCN(C(=O)N4CCOCC4)CC3)cc2)nc1NC1CC1 [Compound 6, 4-(cyclopropylamino)-2-((4-(1-(morpholine-4-carbonyl)piperidin-4-yl)phenyl)amino)pyrimidine-5-carboxamide] |
| +++ (0.10 uM<IC50<0.01 uM) | ++++ (0.01 uM<IC50<0.001 uM) | ++++ (0.01 uM<IC50<0.001 uM) | +++ (0.10 uM<IC50<0.01 uM) | CCC(=O)N1CCC(c2ccc(Nc3ncc(C(N)=O)c(NC4CC4)n3)cc2)CC1 [Compound 7, 4-(cyclopropylamino)-2-((4-(1-propionylpiperidin-4-yl)phenyl)amino)pyrimidine-5-carboxamide] |
| +++ (0.10 uM<IC50<0.01 uM) | ++++ (0.01 uM<IC50<0.001 uM) | ++++ (0.01 uM<IC50<0.001 uM) | +++ (0.10 uM<IC50<0.01 uM) | NC(=O)c1cnc(Nc2ccc(C3CCN(C4CCCC4)CC3)cc2)nc1NC1CC1 [Compound 8, 2-((4-(1-cyclopentylpiperidin-4-yl)phenyl)amino)-4-(cyclopropylamino)pyrimidine-5-carboxamide] |
| +++ (0.10 uM<IC50<0.01 uM) |  |  |  | CC(=O)N1CC(c2ccc(Nc3ncc(C(N)=O)c(NC4CC4)n3)cc2)C1 [Compound 71, 2-(4-(1-acetylazetidin-3-yl)phenylamino)-4-(cyclopropylamino)pyrimidine-5-carboxamide] |
| +++ (0.10 uM<IC50<0.01 uM) |  |  |  | COCC(=O)N1CC(c2ccc(Nc3ncc(C(N)=O)c(NC4CC4)n3)cc2)C1 [Compound 72, 4-(cyclopropylamino)-2-(4-(1-(2-methoxyacetyl)azetidin-3-yl)phenylamino)pyrimidine-5-carboxamide] |
| +++ (0.10 uM<IC50<0.01 uM) |  |  |  | CS(=O)(=O)N1CC(c2ccc(Nc3ncc(C(N)=O)c(NC4CC4)n3)cc2)C1 [Compound 73, 4-(cyclopropylamino)-2-(4-(1-(methylsulfonyl)azetidin-3-yl)phenylamino)pyrimidine-5-carboxamide] |
| +++ (0.10 uM<IC50<0.01 uM) |  |  |  | CN(C)S(=O)(=O)N1CC(c2ccc(Nc3ncc(C(N)=O)c(NC4CC4)n3)cc2)C1 [Compound 74, 4-(cyclopropylamino)-2-(4-(1-(N,N-dimethylsulfamoyl)azetidin-3-yl)phenylamino)pyrimidine-5-carboxamide] |
| +++ (0.10 uM<IC50<0.01 uM) |  |  |  | CCS(=O)(=O)N1CC(c2ccc(Nc3ncc(C(N)=O)c(NC4CC4)n3)cc2)C1 [Compound 75, 4-(cyclopropylamino)-2-(4-(1-(ethylsulfonyl)azetidin-3-yl)phenylamino)pyrimidine-5-carboxamide] |
| ++ (1.0 uM<IC50<0.10 uM) |  |  |  | CN(C)C(=O)C1CN(c2ccc(Nc3ncc(C(N)=O)c(NC4CC4)n3)cc2)C1 [Compound 76, 4-(cyclopropylamino)-2-(4-(3-(dimethylcarbamoyl)azetidin-1-yl)phenylamino)pyrimidine-5-carboxamide] |
| ++ (1.0 uM<IC50<0.10 uM) |  |  |  | CN(C)C(=O)C1CN(c2ccc(Nc3ncc(C(N)=O)c(NC4CC4)n3)cc2F)C1 [Compound 77, 4-(cyclopropylamino)-2-(4-(3-(dimethylcarbamoyl)azetidin-1-yl)-3-fluorophenylamino)pyrimidine-5-carboxamide] |
